Laboratory results published in article PMC6757234, “Extractions of Medical Cannabis Cultivars and the Role of Decarboxylation in Optimal Receptor Responses” (Cannabis and Cannabinoid Research, 2019).
Like-named read-outs stand apart in the source and are kept apart here.

Assays:
CB2 receptor = target: T1, CB2 receptor (Homo sapiens, UniProt P34972); assay: cAMP assay (HitHunter) in CHO-K1-CB2 cells, agonist and antagonist modes; assay type: cell-based; settings: for CB2 Mode of action: CHO-K1-CB2 cells, forskolin 20 μM, NA = no activity; for EC50 / CB2 Efficacy (%): agonist or antagonist mode; for EC50: antagonist mode against CP-55940 at EC90; for CB2 Efficacy (%): percentage of the response to CP-55940
T1 construct: host or cells: CHO-K1-CB2
T1 sequence (P34972 whole entry): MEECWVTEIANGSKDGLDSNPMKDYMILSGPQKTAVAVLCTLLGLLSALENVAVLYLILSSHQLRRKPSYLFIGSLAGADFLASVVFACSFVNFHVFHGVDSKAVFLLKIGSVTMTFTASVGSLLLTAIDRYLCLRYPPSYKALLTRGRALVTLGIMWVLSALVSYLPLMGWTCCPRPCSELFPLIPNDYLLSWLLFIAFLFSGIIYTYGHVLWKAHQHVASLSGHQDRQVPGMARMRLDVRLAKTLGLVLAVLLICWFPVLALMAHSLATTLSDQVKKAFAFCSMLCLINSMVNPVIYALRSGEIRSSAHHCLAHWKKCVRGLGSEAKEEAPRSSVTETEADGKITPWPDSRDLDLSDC

CB1 receptor = target: T2, CB1 receptor (Homo sapiens, UniProt P21554); assay: cell-based; assay type: cell-based
T2 construct: host or cells: CHO-K1-CB1
T2 sequence (P21554 whole entry): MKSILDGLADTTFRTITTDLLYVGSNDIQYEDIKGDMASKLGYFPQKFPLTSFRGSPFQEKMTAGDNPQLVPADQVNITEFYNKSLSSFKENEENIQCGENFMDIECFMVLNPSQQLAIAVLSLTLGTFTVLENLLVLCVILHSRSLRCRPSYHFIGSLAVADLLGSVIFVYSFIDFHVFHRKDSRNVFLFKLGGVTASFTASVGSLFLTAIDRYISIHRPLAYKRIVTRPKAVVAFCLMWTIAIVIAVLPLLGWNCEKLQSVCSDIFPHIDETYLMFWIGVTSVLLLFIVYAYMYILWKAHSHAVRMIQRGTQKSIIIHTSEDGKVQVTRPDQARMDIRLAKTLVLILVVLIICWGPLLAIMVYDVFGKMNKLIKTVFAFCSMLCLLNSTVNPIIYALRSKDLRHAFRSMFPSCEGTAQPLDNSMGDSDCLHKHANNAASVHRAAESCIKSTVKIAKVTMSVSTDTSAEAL

human CB2 receptors = target: human CB2 receptors; design: method as in PMID 28861508; settings: reference standard contaminated with 2% Δ9-THC; read-out: approximate Ki at human CB2; cited from earlier work
human CB1 = target: human CB1; design: method as in PMID 28861508; settings: reference standard contaminated with 2% Δ9-THC; read-out: approximate Ki at human CB1; cited from earlier work
[1] = percentage of the response to CP-55940, agonist or antagonist mode

Row | Structure (SMILES) | CB2 Mode of action (CB2 receptor) | EC50 (CB2 receptor; read-out: CB2 EC50) [µM] | CB2 Efficacy (%) (CB2 receptor) | CB1 Mode of action (CB1 receptor; CHO-K1-CB1 cells, forskolin 20 μM, NA = no activity) | CB1 Efficacy (%) (CB1 receptor; [1]) | fold weaker than CBD at CB2 receptor as an antagonist (CB2 receptor; comparison of EC50 values) | EC50 (CB1 receptor) [µM] | CB1 Efficacy (%) (CB1 receptor) | CB1 Mode of action (CB1 receptor) | EC50 (CB2 receptor; CB2 EC50 (μM)) [µM] | Ki (human CB2 receptors) [µM] | Ki (human CB1) [µM]
1 | COc1ccc(C(=O)c2c(C)n(CCN3CCOCC3)c3cc(I)ccc23)cc1 [AM-630] | Antagonist | 0.146 ± 0.084 | 100 |  |  |  |  |  |  |  |  | 
2 | C=C(C)[C@@H]1CCC(C)=C[C@H]1c1c(O)cc(CCCCC)cc1O [CBD, cannabidiol, reference compound] | Antagonist |  | 100 | Antagonist | 40 |  |  |  |  |  |  | 
3 | C=C(C)[C@@H]1CCC(C)=C[C@H]1c1c(O)cc(CCCCC)c(C(=O)O)c1O [CBDA, cannabidiolic acid] |  | > 100 | −23 |  | 0 | more than 10 fold | > 10 |  |  |  |  | 
4 | CCCCCCC(C)(C)c1ccc([C@@H]2C[C@H](O)CC[C@H]2CCCO)c(O)c1 [CP-55940, reference compound] | Agonist |  | 100 |  |  |  |  | 100 | Agonist |  |  | 
5 | CCCCCc1cc(O)c2c(c1)OC(C)(C)[C@@H]1CCC(C)=C[C@@H]21 [Δ^9-THC, Δ^9-tetrahydrocannabinol] | Weak partial agonist |  | 20 |  |  |  |  |  |  |  |  | 
6 | CCCCCc1cc2c(c(O)c1C(=O)O)[C@@H]1C=C(C)CC[C@H]1C(C)(C)O2 [Δ^9-THCA, Δ^9-tetrahydrocannabinolic acid] | Weak agonist |  | 100 |  |  |  | 1.8 ± 0.7 | 100 | Weak agonist | 30 ± 15 | ~12.5 | ~3.1
